Experimental data as given in US20230067378A1, “COMPOSITIONS AND METHODS FOR THE TREATMENT OF ESTROGEN-DEPENDENT DISORDERS” (ObsEva S.A., priority 2018, published 2023).

Test system: pre-menopausal women
Assay: uterine bleeding pattern, clinical trial of compound (VI) 200 mg per day (choline salt) with add-back therapy (1.0 mg E2, 0.5 mg norethindrone acetate)
Type: in vivo, human
Procedure: The experiments described in this example were conducted as part of a single-center, open-label, randomized, parallel-group clinical trial in 32 pre-menopausal women. Following screening assessments, and during the second half of the menstrual cycle, women received norethindrone (5 mg, three-times daily for 10 days) to synchronize menstrual cycles. After menstrual cycle synchronization, subjects were randomized with a 1:1 ratio to one of two treatment arms: (i) a cohort receiving once-daily administration of compound (VI) (200 mg per day, administered in the form of a choline salt) with concurrent onset of add-back therapy administration for 10 weeks (“Concurrent-ABT”), or (ii) a cohort receiving pre-treatment with compound (VI) (200 mg per day, administered in the form of a choline salt) for 4 weeks followed by combined daily administration of compound (VI) and add-back therapy (“Delayed-ABT”). The add-back therapy used in these experiments contained 1.0 mg of E2 and 0.5 mg of norethindrone acetate, and was administered to subjects once daily.
The main treatment outcomes and endpoints measured during these experiments included (i) a qualitative assessment of uterine blood loss, which was recorded on a daily basis throughout the study by characterizing each subject's bleeding pattern using one of the following four categories: “no bleeding,” “spotting” (light staining, dark blood, no sanitary protection needed or only panty liner), “bleeding” (1-4 completely soiled maxi sanitary towels or 1-8 soiled tampons or equivalent combination of the two), or “heavy bleeding” (>4 completely soiled maxi sanitary towels or >8 soiled tampons or equivalent combination of the two); (ii) a bi-weekly assessment of each subject's circulating E2 concentration; (iii) a bi-weekly assessment of each subject's circulating progesterone concentration (measured using a validated commercial chemiluminescence immunoassay method (Elecsys Progesterone III, Roche, Burgess Hill, UK)); (iv) the pharmacokinetic profile of compound (VI) and the add-back therapy; and (v) adverse events.

[1] = Days 29-42, treatment A (Concurrent-ABT), N=14
[2] = Days 29-42, treatment B (Delayed-ABT), N=15
[3] = Days 43-56, Overall (A+B), N=29
[4] = Days 43-56, treatment A (Concurrent-ABT), N=14
[5] = Days 43-56, treatment B (Delayed-ABT), N=15
[6] = Days 57-70, Overall (A+B), N=29
[7] = Days 57-70, treatment A (Concurrent-ABT), N=14
[8] = Days 57-70, treatment B (Delayed-ABT), N=15
[9] = Delayed-ABT cohort, after add-back therapy was initiated in week 5

COc1cc(F)c(-n2c(=O)[nH]c3csc(C(=O)O)c3c2=O)cc1OCc1c(OC)ccc(F)c1F [Compound (VI), 3-[2-fluoro-5-(2,3-difluoro-6-methoxybenzyloxy)4-methoxyphenyl]-2,4-dioxo-1,2,3,4-tetrahydrothieno [3,4d]pyrimidine-5-carboxylic acid] was tested, and the “No Bleeding or Spotting, subjects (n), Plasma Estradiol Level 20-50 pg/mL” value [1] was 9, the “No Bleeding or Spotting, subjects (n), Plasma Estradiol Level <20 pg/mL” value [1] was 1 and the “No Bleeding or Spotting, subjects (n), Plasma Estradiol Level >50 pg/mL” value [1] was 3. The “No Bleeding, subjects (%), Plasma Estradiol Level 20-50 pg/mL” value [1] was “(50.0%)”, the “No Bleeding, subjects (%), Plasma Estradiol Level <20 pg/mL” value [1] was “(7.1%)” and the “No Bleeding, subjects (%), Plasma Estradiol Level >50 pg/mL” value [1] was “(21.4%)”. For the same molecule, the “No Bleeding, subjects (n), Plasma Estradiol Level 20-50 pg/mL” value [1] was 7, the “No Bleeding, subjects (n), Plasma Estradiol Level <20 pg/mL” value [1] was 1 and the “No Bleeding, subjects (n), Plasma Estradiol Level >50 pg/mL” value [1] was 3. The “No Bleeding or Spotting, subjects (%), Plasma Estradiol Level 20-50 pg/mL” value [2] was “(46.7%)”, the “No Bleeding or Spotting, subjects (%), Plasma Estradiol Level <20 pg/mL” value [2] was “(20.0%)” and the “No Bleeding or Spotting, subjects (%), Plasma Estradiol Level >50 pg/mL” value [2] was “(20.0%)”. For the same molecule, the “No Bleeding or Spotting, subjects (n), Plasma Estradiol Level 20-50 pg/mL” value [2] was 7, the “No Bleeding or Spotting, subjects (n), Plasma Estradiol Level <20 pg/mL” value [2] was 3 and the “No Bleeding or Spotting, subjects (n), Plasma Estradiol Level >50 pg/mL” value [2] was 3. The “No Bleeding, subjects (%), Plasma Estradiol Level 20-50 pg/mL” value [2] was “(33.3%)”, the “No Bleeding, subjects (%), Plasma Estradiol Level <20 pg/mL” value [2] was “(20.0%)” and the “No Bleeding, subjects (%), Plasma Estradiol Level >50 pg/mL” value [2] was “(13.3%)”. The “No Bleeding, subjects (n), Plasma Estradiol Level 20-50 pg/mL” value [2] was 5, the “No Bleeding, subjects (n), Plasma Estradiol Level <20 pg/mL” value [2] was 3 and the “No Bleeding, subjects (n), Plasma Estradiol Level >50 pg/mL” value [2] was 2. For the same molecule, the “No Bleeding or Spotting, subjects (%), Plasma Estradiol Level 20-50 pg/mL” value [3] was “(51.7%)”, the “No Bleeding or Spotting, subjects (%), Plasma Estradiol Level <20 pg/mL” value [3] was “(13.8%)” and the “No Bleeding or Spotting, subjects (%), Plasma Estradiol Level >50 pg/mL” value [3] was “(17.2%)”. The “No Bleeding or Spotting, subjects (n), Plasma Estradiol Level 20-50 pg/mL” value [3] was 15, the “No Bleeding or Spotting, subjects (n), Plasma Estradiol Level <20 pg/mL” value [3] was 4 and the “No Bleeding or Spotting, subjects (n), Plasma Estradiol Level >50 pg/mL” value [3] was 5. For the same molecule, the “No Bleeding, subjects (%), Plasma Estradiol Level 20-50 pg/mL” value [3] was “(37.9%)”, the “No Bleeding, subjects (%), Plasma Estradiol Level <20 pg/mL” value [3] was “(10.3%)” and the “No Bleeding, subjects (%), Plasma Estradiol Level >50 pg/mL” value [3] was “(13.8%)”. For the same molecule, the “No Bleeding, subjects (n), Plasma Estradiol Level 20-50 pg/mL” value [3] was 11, the “No Bleeding, subjects (n), Plasma Estradiol Level <20 pg/mL” value [3] was 3 and the “No Bleeding, subjects (n), Plasma Estradiol Level >50 pg/mL” value [3] was 4. For the same molecule, the “No Bleeding or Spotting, subjects (%), Plasma Estradiol Level 20-50 pg/mL” value [4] was “(57.1%)”, the “No Bleeding or Spotting, subjects (%), Plasma Estradiol Level <20 pg/mL” value [4] was “(7.1%)” and the “No Bleeding or Spotting, subjects (%), Plasma Estradiol Level >50 pg/mL” value [4] was “(21.4%)”. The “No Bleeding or Spotting, subjects (n), Plasma Estradiol Level 20-50 pg/mL” value [4] was 8, the “No Bleeding or Spotting, subjects (n), Plasma Estradiol Level <20 pg/mL” value [4] was 1 and the “No Bleeding or Spotting, subjects (n), Plasma Estradiol Level >50 pg/mL” value [4] was 3. The “No Bleeding, subjects (%), Plasma Estradiol Level 20-50 pg/mL” value [4] was “(50.0%)”, the “No Bleeding, subjects (%), Plasma Estradiol Level <20 pg/mL” value [4] was “(7.1%)” and the “No Bleeding, subjects (%), Plasma Estradiol Level >50 pg/mL” value [4] was “(21.4%)”. For the same molecule, the “No Bleeding, subjects (n), Plasma Estradiol Level 20-50 pg/mL” value [4] was 7, the “No Bleeding, subjects (n), Plasma Estradiol Level <20 pg/mL” value [4] was 1 and the “No Bleeding, subjects (n), Plasma Estradiol Level >50 pg/mL” value [4] was 3. For the same molecule, the “No Bleeding or Spotting, subjects (%), Plasma Estradiol Level 20-50 pg/mL” value [5] was “(46.7%)”, the “No Bleeding or Spotting, subjects (%), Plasma Estradiol Level <20 pg/mL” value [5] was “(20.0%)” and the “No Bleeding or Spotting, subjects (%), Plasma Estradiol Level >50 pg/mL” value [5] was “(13.3%)”. The “No Bleeding or Spotting, subjects (n), Plasma Estradiol Level 20-50 pg/mL” value [5] was 7, the “No Bleeding or Spotting, subjects (n), Plasma Estradiol Level <20 pg/mL” value [5] was 7 and the “No Bleeding or Spotting, subjects (n), Plasma Estradiol Level >50 pg/mL” value [5] was 2. For the same molecule, the “No Bleeding, subjects (%), Plasma Estradiol Level 20-50 pg/mL” value [5] was “(26.7%)”, the “No Bleeding, subjects (%), Plasma Estradiol Level <20 pg/mL” value [5] was “(13.3%)” and the “No Bleeding, subjects (%), Plasma Estradiol Level >50 pg/mL” value [5] was “(6.7%)”. For the same molecule, the “No Bleeding, subjects (n), Plasma Estradiol Level 20-50 pg/mL” value [5] was 4, the “No Bleeding, subjects (n), Plasma Estradiol Level <20 pg/mL” value [5] was 2 and the “No Bleeding, subjects (n), Plasma Estradiol Level >50 pg/mL” value [5] was 1. For the same molecule, the “No Bleeding or Spotting, subjects (%), Plasma Estradiol Level 20-50 pg/mL” value [6] was “(48.3%)”, the “No Bleeding or Spotting, subjects (%), Plasma Estradiol Level <20 pg/mL” value [6] was “(20.7%)” and the “No Bleeding or Spotting, subjects (%), Plasma Estradiol Level >50 pg/mL” value [6] was “(13.8%)”. For the same molecule, the “No Bleeding or Spotting, subjects (n), Plasma Estradiol Level 20-50 pg/mL” value [6] was 14, the “No Bleeding or Spotting, subjects (n), Plasma Estradiol Level <20 pg/mL” value [6] was 6 and the “No Bleeding or Spotting, subjects (n), Plasma Estradiol Level >50 pg/mL” value [6] was 4. The “No Bleeding, subjects (%), Plasma Estradiol Level 20-50 pg/mL” value [6] was “(41.4%)”, the “No Bleeding, subjects (%), Plasma Estradiol Level <20 pg/mL” value [6] was “(20.7%)” and the “No Bleeding, subjects (%), Plasma Estradiol Level >50 pg/mL” value [6] was “(10.3%)”. For the same molecule, the “No Bleeding, subjects (n), Plasma Estradiol Level 20-50 pg/mL” value [6] was 12, the “No Bleeding, subjects (n), Plasma Estradiol Level <20 pg/mL” value [6] was 6 and the “No Bleeding, subjects (n), Plasma Estradiol Level >50 pg/mL” value [6] was 3. For the same molecule, the “No Bleeding or Spotting, subjects (%), Plasma Estradiol Level 20-50 pg/mL” value [7] was “(50.0%)”, the “No Bleeding or Spotting, subjects (%), Plasma Estradiol Level <20 pg/mL” value [7] was “(21.4%)” and the “No Bleeding or Spotting, subjects (%), Plasma Estradiol Level >50 pg/mL” value [7] was “(21.4%)”. The “No Bleeding or Spotting, subjects (n), Plasma Estradiol Level 20-50 pg/mL” value [7] was 7, the “No Bleeding or Spotting, subjects (n), Plasma Estradiol Level <20 pg/mL” value [7] was 3 and the “No Bleeding or Spotting, subjects (n), Plasma Estradiol Level >50 pg/mL” value [7] was 3. For the same molecule, the “No Bleeding, subjects (%), Plasma Estradiol Level 20-50 pg/mL” value [7] was “(42.9%)”, the “No Bleeding, subjects (%), Plasma Estradiol Level <20 pg/mL” value [7] was “(21.4%)” and the “No Bleeding, subjects (%), Plasma Estradiol Level >50 pg/mL” value [7] was “(21.4%)”. The “No Bleeding, subjects (n), Plasma Estradiol Level 20-50 pg/mL” value [7] was 6, the “No Bleeding, subjects (n), Plasma Estradiol Level <20 pg/mL” value [7] was 3 and the “No Bleeding, subjects (n), Plasma Estradiol Level >50 pg/mL” value [7] was 3. The “No Bleeding or Spotting, subjects (%), Plasma Estradiol Level 20-50 pg/mL” value [8] was “(46.7%)”, the “No Bleeding or Spotting, subjects (%), Plasma Estradiol Level <20 pg/mL” value [8] was “(20.0%)” and the “No Bleeding or Spotting, subjects (%), Plasma Estradiol Level >50 pg/mL” value [8] was “(6.7%)”. The “No Bleeding or Spotting, subjects (n), Plasma Estradiol Level 20-50 pg/mL” value [8] was 7, the “No Bleeding or Spotting, subjects (n), Plasma Estradiol Level <20 pg/mL” value [8] was 3 and the “No Bleeding or Spotting, subjects (n), Plasma Estradiol Level >50 pg/mL” value [8] was 1. For the same molecule, the “No Bleeding, subjects (%), Plasma Estradiol Level 20-50 pg/mL” value [8] was “(40.0%)”, the “No Bleeding, subjects (%), Plasma Estradiol Level <20 pg/mL” value [8] was “(20.0%)” and the “No Bleeding, subjects (%), Plasma Estradiol Level >50 pg/mL” value [8] was “(0.0%)”. For the same molecule, the “No Bleeding, subjects (n), Plasma Estradiol Level 20-50 pg/mL” value [8] was 6, the “No Bleeding, subjects (n), Plasma Estradiol Level <20 pg/mL” value [8] was 3 and the “No Bleeding, subjects (n), Plasma Estradiol Level >50 pg/mL” value [8] was 0. For the same molecule, the “uterine bleeding / amenorrhea” value (Delayed-ABT cohort, Compound (VI) alone (first 4 weeks), FIG. 1A) was “amenorrhea in all subjects by week 5”, the “bleeding, frequency” value [9] was at most 8% and the “spotting, frequency” value [9] was at most 11%. The “women in amenorrhea within 5 days of treatment” value (Delayed-ABT group) was about 20%, the women in amenorrhea (Delayed-ABT group, last 4 weeks of treatment, p=0.03) was 40% and the “Uterine Bleeding Pattern: amenorrhea” value (Delayed-ABT, Weeks 2-4, achieved in week 5) was “almost 100% amenorrhea (achieved in week 5)”. For the same molecule, the “Uterine Bleeding Pattern: onset of spotting and bleeding” value (Delayed-ABT, Weeks 6-10) was “Spotting and bleeding began after 1 week of add-”.
